Test [1] relates to Mycobacterium tuberculosis. Nature of the test: Antimycobacterial activity against Mycobacterium tuberculosis H37Rv ATCC 27294 by alamar blue broth microdilution assay. The class given is functional. In general terms: The colour change of resazurin is a common sign of viable cells or microbes.
For a further test, the system named is Vero. Nature of the test: Cytotoxicity against african green monkey Vero cells after 72 hrs by MTT assay. It is filed as cell-based. The note with it: Chlorocebus sabaeus. (In general: Formazan colour is commonly taken as a measure of viable cells.)

Broadly, the MIC90 is an inhibitory concentration at the 90% level, which refers to growth in some studies and to a panel of isolates in others. A word on the IC50: it is the point on the concentration scale where inhibition reaches its midpoint.

Converted amounts (≈) assume the structure as drawn.

For the compound `CN1CC(c2cncc(-c3ccc(F)cc3)c2)C2(Cc3ccccc3C2=O)C12C(=O)c1ccccc1C2=O` (stereo unspecified), in test [1], the MIC90 worked out at 0.121 µM (≈ 0.0611 µg/mL). Moreover, the IC50 in the test with Vero is over 62.5 µg/mL.

In test [1], `COc1ccc(C2CN(C)C3(C(=O)c4ccccc4C3=O)C23Cc2ccccc2C3=O)cc1` (stereo unspecified) registered an MIC90 of over 6.25 µM. The half-inhibitory concentration (IC50) with Vero was over 62.5 µg/mL.

Regarding `CN1CC(c2cccc([N+](=O)[O-])c2)C2(Cc3ccccc3C2=O)C12C(=O)c1ccccc1C2=O` (stereo unspecified), in test [1], the MIC90 worked out at 0.81 µM (≈ 0.366 µg/mL). This compound also came in with a 50% inhibitory concentration (IC50) with Vero of over 62.5 µg/mL.

The compound `CN1CC(c2cccc3c2OCO3)C2(Cc3ccccc3C2=O)C12C(=O)c1ccccc1C2=O` (stereo unspecified) returned an MIC90 in test [1] of 2.42 µM (≈ 1.09 µg/mL). For the same compound, the IC50 with Vero was over 62.5 µg/mL.

`CN1CC(c2ccc(N3CCOCC3)cc2)C2(Cc3ccccc3C2=O)C12C(=O)c1ccccc1C2=O` (stereo unspecified) displayed an MIC90 in test [1] of 1.22 µM (≈ 0.598 µg/mL). For the same compound, the IC50 in the test with Vero is over 62.5 µg/mL.

In test [1], `NNC(=O)c1ccncc1` [ISONIAZID] registered an MIC90 of 0.73 µM (≈ 0.1 µg/mL). The IC50 in the test with Vero is over 62.5 µg/mL.

`CN1CC(c2ccc(OC(F)(F)F)cc2)C2(Cc3ccccc3C2=O)C12C(=O)c1ccccc1C2=O` (stereo unspecified) displayed an MIC90 in test [1] of 0.214 µM (≈ 0.105 µg/mL). The compound also came in with an IC50 with Vero of over 62.5 µg/mL.

In turn, `CN1CC(c2ccc(Cl)cc2)C2(Cc3ccccc3C2=O)C12C(=O)c1ccccc1C2=O` (stereo unspecified) had an MIC90 in test [1] of 1.2 µM (≈ 0.528 µg/mL). The compound also returned an IC50 in the test on Vero of over 62.5 µg/mL.

As to `CN1CC(c2ccc(C(F)(F)F)cc2)C2(Cc3ccccc3C2=O)C12C(=O)c1ccccc1C2=O` (stereo unspecified), in test [1], the MIC90 amounted to 0.638 µM (≈ 0.303 µg/mL). In the test on Vero, this compound had a 50% inhibitory concentration (IC50) of over 62.5 µg/mL.

Turning to `CN(C)c1ccc(C2CN(C)C3(C(=O)c4ccccc4C3=O)C23Cc2ccccc2C3=O)cc1` (stereo unspecified), the MIC90 in test [1] came to 3.32 µM (≈ 1.5 µg/mL). Moreover, in the test with Vero, the IC50 is over 62.5 µg/mL.

In turn, `CN1CC(c2ccc(C(=O)O)cc2)C2(Cc3ccccc3C2=O)C12C(=O)c1ccccc1C2=O` (stereo unspecified) displayed an MIC90 in test [1] of 0.295 µM (≈ 0.133 µg/mL). Moreover, the IC50 with Vero is over 62.5 µg/mL.

As for `CN1CC(c2ccc(Br)cc2)C2(Cc3ccccc3C2=O)C12C(=O)c1ccccc1C2=O` (stereo unspecified), the MIC90 in test [1] is 1.37 µM (≈ 0.667 µg/mL). The compound also had an IC50 in the test with Vero of over 62.5 µg/mL.

Take `CN1CC(c2ccccc2)C2(Cc3ccccc3C2=O)C12C(=O)c1ccccc1C2=O` (stereo unspecified): the MIC90 in test [1] worked out at 6.22 µM (≈ 2.53 µg/mL). The same compound yielded an IC50 in the test on Vero of over 62.5 µg/mL.

For the origin of these results see ChEMBL document CHEMBL2062378, “Antimycobacterial activity: a facile three-component [3+2]-cycloaddition for the regioselective synthesis of highly functionalised dispiropyrrolidines” (Bioorg Med Chem Lett, 2012).
